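Results reflect a 48-hour exposure of cells in 96-well plates to compound at five concentrations. The concentration for 50% growth inhibition is given as GI50. The concentration for full growth arrest is given as TGI.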

Among the test systems are BT-549 breast; COLO 205 colon; HCT-116 colon; HOP-92 NSCLC; M14 melanoma; MALME-3M melanoma; MCF7 breast; MDA-MB-435; SK-MEL-2 melanoma; SNB-75 CNS.
Common to all, as to assay: inhibition of tumour cell growth, NCI panel, 48 h

Take `NC(=O)CC1(O)C=C(Br)C(=O)C(Br)=C1`: the GI50 is 1910 nM in the test with BT-549 breast; 1250 nM in the test with COLO 205 colon; 392 nM in the test with HCT-116 colon; 1850 nM in the test on HOP-92 NSCLC; 2640 nM in the test on M14 melanoma; 2120 nM in the test with MALME-3M melanoma. Also, the GI50 in the test on MCF7 breast was 3.3 µM; with MDA-MB-435 it was 2040 nM; with SK-MEL-2 melanoma, 5.21 µM; with SNB-75 CNS, 12.8 µM. The TGI in the test with BT-549 breast was 6.97 µM; in the test on COLO 205 colon, 2.63 µM; with HCT-116 colon, 10.7 µM; with HOP-92 NSCLC, 4.26 µM; in the test with M14 melanoma, above 32.8 µM; in the test on MALME-3M melanoma, 4.36 µM. Further, the TGI with MCF7 breast was 15.3 µM; in the test with MDA-MB-435, 7.31 µM; with SK-MEL-2 melanoma it was 18.4 µM; in the test with SNB-75 CNS it was 26.2 µM.

Regarding `COc1ccc(Cl)cc1Nc1nc(C(F)(F)F)ccc1C(=O)N/N=C/c1cccnc1`, the GI50 in the test on BT-549 breast was 1990 nM; in the test on COLO 205 colon, 2580 nM; in the test with HCT-116 colon, 3430 nM; with HOP-92 NSCLC, 2420 nM; in the test on M14 melanoma it was 2420 nM; in the test on MALME-3M melanoma it was 2550 nM. In addition, the GI50 is 3.51 µM in the test on MCF7 breast, 5630 nM in the test on MDA-MB-435, 3.5 µM in the test on SK-MEL-2 melanoma and 3.87 µM with SNB-75 CNS. The TGI with BT-549 breast is above 100 µM; with COLO 205 colon, above 100 µM; with HCT-116 colon, above 100 µM; with HOP-92 NSCLC, 28.3 µM; in the test with M14 melanoma, above 100 µM; with MALME-3M melanoma, above 100 µM. Besides, the TGI in the test with MCF7 breast was above 100 µM; with MDA-MB-435 it was above 100 µM; in the test on SK-MEL-2 melanoma it was above 100 µM; with SNB-75 CNS it was 49.7 µM.

With `CN1CCN(c2ccc(NC(=O)c3cncnc3Nc3ccc(OCc4cccc(F)c4)c(Cl)c3)cc2)CC1`, the GI50 was above 50000 nM with BT-549 breast; 799 nM in the test on COLO 205 colon; 966 nM with HCT-116 colon; 1950 nM in the test on HOP-92 NSCLC; 895 nM in the test with M14 melanoma; 850 nM in the test on MALME-3M melanoma. Also, the GI50 in the test on MCF7 breast was 0.993 µM; in the test on MDA-MB-435, 972 nM; in the test on SK-MEL-2 melanoma, 3 µM; in the test with SNB-75 CNS, 5.77 µM. The TGI is above 50 µM with BT-549 breast; 1.54 µM in the test with COLO 205 colon; 2.12 µM with HCT-116 colon; 18.1 µM in the test on HOP-92 NSCLC; 1.71 µM in the test with M14 melanoma; 1.74 µM in the test on MALME-3M melanoma. Also, the TGI in the test on MCF7 breast stood at 2.4 µM; with MDA-MB-435, 1.87 µM; with SK-MEL-2 melanoma, 12.2 µM; in the test with SNB-75 CNS, 18.8 µM.

In the case of `Clc1ccc2ncc(-c3cccc(NC4CNC4)n3)n2c1`, the GI50 was 10500 nM in the test with BT-549 breast; 2110 nM with COLO 205 colon; 3700 nM with HCT-116 colon; 20500 nM in the test with HOP-92 NSCLC; 8870 nM with M14 melanoma; 8590 nM in the test with MALME-3M melanoma. The GI50 in the test on MCF7 breast is 4.64 µM; with MDA-MB-435, 4760 nM; in the test with SK-MEL-2 melanoma it was 13.5 µM; with SNB-75 CNS, 10.6 µM. Moreover, the TGI is 31.8 µM in the test on BT-549 breast; 7.31 µM with COLO 205 colon; above 100 µM in the test on HCT-116 colon; 67.7 µM in the test with HOP-92 NSCLC; 25.5 µM in the test on M14 melanoma; 26.4 µM in the test on MALME-3M melanoma. The TGI in the test with MCF7 breast was 52.3 µM; in the test on MDA-MB-435, 21.5 µM; with SK-MEL-2 melanoma, 37.9 µM; in the test with SNB-75 CNS, 27.8 µM.

Regarding `O=C(COc1ccc(OCC(=O)N2C(=O)CN(c3ccccc3)C2=S)cc1)N1C(=O)CN(c2ccccc2)C1=S`, the TGI in the test on BT-549 breast, in the test on COLO 205 colon, in the test with HCT-116 colon, in the test with HOP-92 NSCLC, in the test on M14 melanoma and in the test with MALME-3M melanoma was above 100 µM each time. The TGI in the test with MCF7 breast, in the test on MDA-MB-435, in the test on SK-MEL-2 melanoma and in the test on SNB-75 CNS was above 100 µM in each case. The GI50 was above 25000 nM in the test on COLO 205 colon; above 25000 nM in the test on HCT-116 colon; above 25000 nM with M14 melanoma; 36700 nM in the test on MALME-3M melanoma; above 25000 nM with MDA-MB-435; above 25 µM in the test with SK-MEL-2 melanoma. Also, the GI50 with SNB-75 CNS is 33.7 µM.

Turning to `COc1ccc(-c2[nH]nc(N)c2-c2cc(OC)c3c(c2)OCO3)cc1`, the GI50 with BT-549 breast is 7710 nM; in the test with COLO 205 colon, 4760 nM; in the test with HCT-116 colon, 2710 nM; with HOP-92 NSCLC it was 3540 nM; with M14 melanoma, 2550 nM; in the test on MALME-3M melanoma, 5010 nM. Also, the GI50 with MCF7 breast is 3.83 µM; in the test on MDA-MB-435, 559 nM; in the test with SK-MEL-2 melanoma, 2.81 µM; in the test with SNB-75 CNS it was 3.25 µM. The TGI is above 100 µM with BT-549 breast; 20 µM with COLO 205 colon; above 100 µM with HCT-116 colon; 46.8 µM in the test with HOP-92 NSCLC; 7.24 µM in the test on M14 melanoma; above 100 µM in the test on MALME-3M melanoma. Besides, the TGI in the test on MCF7 breast is above 100 µM; in the test on MDA-MB-435, 2.54 µM; with SK-MEL-2 melanoma, 6.42 µM; in the test with SNB-75 CNS, above 100 µM.

With `Cc1ccc(/C=C/c2c(C(=O)/C=C/c3ccc(Cl)cc3)c(C)nc3ccccc23)cc1`, the GI50 in the test with BT-549 breast is 1400 nM; in the test on COLO 205 colon, 2170 nM; with HCT-116 colon, 526 nM; in the test on HOP-92 NSCLC, 1620 nM; in the test with M14 melanoma it was 1640 nM; in the test on MALME-3M melanoma, 1740 nM. The GI50 in the test with MCF7 breast is 1.58 µM; in the test with MDA-MB-435, 2050 nM; in the test on SK-MEL-2 melanoma, 2.01 µM; in the test on SNB-75 CNS, 1.51 µM. Besides, the TGI in the test on BT-549 breast amounted to 2.93 µM; in the test on COLO 205 colon it was 5.46 µM; in the test on HCT-116 colon it was 2.02 µM; in the test with HOP-92 NSCLC, 3.53 µM; in the test with M14 melanoma it was 3.4 µM; in the test on MALME-3M melanoma it was 3.17 µM. Moreover, the TGI came out at 4.95 µM with MCF7 breast, 4.22 µM with MDA-MB-435, 4.96 µM in the test on SK-MEL-2 melanoma and 3.24 µM in the test on SNB-75 CNS.

Source of the values: PubChem BioAssay (NCI).
